In brackets after ≈: the same amount, converted by molar mass. Like-named read-outs stand apart in the source and are kept apart here. Residues, ends and D or L forms follow the SMILES beside them. No end group written: not given here.
Legend:
K. pneumoniae DSM 30104 = conditions: DSM 30104, 20 h
[1] = test system: E. faecium (isolate from the gut of the cow); conditions: 20 h
in vitro = conditions: human
P. aeruginosa DSM 1117 = conditions: DSM 1117, 20 h
E. coli MG1655 = conditions: MG1655, 20 h
[2] = test system: A. baumannii (isolate from the human abdominal wall); conditions: 20 h
B. subtilis PY79 = conditions: PY79, 20 h
S. pneumoniae D39 = conditions: D39, 20 h

| Compound | MIC K. pneumoniae (K. pneumoniae DSM 30104) | MIC E. faecium [1] | CC50 at 24 h (in vitro) | MIC P. aeruginosa (P. aeruginosa DSM 1117) | E. coli MIC (E. coli MG1655) | MIC A. baumannii [2] | B. subtilis MIC (B. subtilis PY79) | CC50 (in vitro) | CC50 | MIC S. pneumoniae (S. pneumoniae D39) |
| --- | --- | --- | --- | --- | --- | --- | --- | --- | --- | --- |
| CC[C@H](C)[C@H](NC(=O)CNC(=O)[C@@H](N)CCSC)C(=O)NCC(=O)N[C@@H](CCCCN)C(=O)N[C@@H](Cc1ccccc1)C(=O)N[C@@H](CCC(N)=O)C(=O)N[C@@H](CCCCN)C(=O)N[C@@H](CCSC)C(=O)N[C@@H](CCCNC(=N)N)C(=O)N[C@@H](Cc1ccccc1)C(=O)N[C@H](C(=O)NCC(=O)N[C@@H](C)C(=O)N[C@H](C(=O)N[C@@H](CCCNC(=N)N)C(=O)N[C@@H](C)C(=O)N[C@@H](CO)C(=O)N[C@@H](CCCCN)C(=O)NCC(=O)N[C@H](C(=O)N[C@@H](C)C(=O)N[C@@H](CCCCN)C(=O)NCC(=O)N[C@@H](CC(C)C)C(=O)N[C@@H](CC(C)C)C(=O)N[C@@H](CCCNC(=N)N)C(=O)N[C@H](C(=O)N[C@@H](C)C(=O)N[C@@H](C)C(=O)N[C@H](C(=O)N[C@@H](CCCNC(=N)N)C(=O)N[C@H](C(=O)NCC(=O)N[C@@H](CCCNC(=N)N)C(=O)N[C@@H](CCCNC(=N)N)C(=O)N[C@@H](C)C(=O)N[C@@H](CC(C)C)C(=O)N[C@H](C(=O)N[C@H](C(N)=O)[C@@H](C)O)[C@@H](C)O)[C@@H](C)O)[C@@H](C)CC)[C@@H](C)CC)C(C)C)[C@@H](C)CC)[C@@H](C)CC [AMP #21] (H-MGIGKFQKMRFIGAIRASKGVAKGLLRIAAIRTGRRALTT-NH2) | 25.0 µM (≈ 108 µg/mL) | 6.3 µM (≈ 27.2 µg/mL) | > 250 µM | 12.5 µM (≈ 53.9 µg/mL) | 10.4 µM | 0.8 µM (≈ 3.45 µg/mL) | 0.5 µM |  |  |  |
| CC[C@H](C)[C@H](NC(=O)[C@H](CO)NC(=O)[C@H](CO)NC(=O)[C@H](CO)NC(=O)[C@H](CCCNC(=N)N)NC(=O)[C@@H](NC(=O)[C@H](CO)NC(=O)[C@@H](N)CCSC)[C@@H](C)O)C(=O)N[C@@H](CCCNC(=N)N)C(=O)N[C@@H](CCCNC(=N)N)C(=O)N[C@@H](CC(C)C)C(=O)N[C@H](C(=O)N[C@@H](CCC(=O)O)C(=O)N[C@@H](C)C(=O)N[C@H](C(=O)N[C@@H](CCCNC(=N)N)C(=O)N[C@H](C(=O)N[C@@H](CCCNC(=N)N)C(=O)N[C@@H](Cc1ccccc1)C(=O)N[C@@H](CCCNC(=N)N)C(=O)N[C@@H](C)C(=O)N[C@@H](C)C(=O)N[C@@H](CC(C)C)C(=O)N[C@@H](CCCNC(=N)N)C(=O)N[C@H](C(=O)N[C@H](C(=O)N[C@@H](CC(C)C)C(=O)N[C@@H](Cc1ccccc1)C(=O)N[C@@H](Cc1ccccc1)C(=O)N[C@@H](C)C(=O)N[C@@H](CC(C)C)C(=O)N[C@@H](CCCNC(=N)N)C(=O)N[C@H](C(=O)N[C@H](C(=O)N[C@@H](CCCCN)C(=O)N[C@@H](CCCNC(=N)N)C(=O)N[C@@H](CCCNC(=N)N)C(=O)N1CCC[C@H]1C(=O)N[C@@H](CCCNC(=N)N)C(=O)N[C@@H](CCCNC(=N)N)C(N)=O)[C@@H](C)O)[C@@H](C)O)C(C)C)[C@@H](C)O)[C@@H](C)O)C(C)C)C(C)C [AMP #23] (H-MSTRSSSIRRLVEAVRTRFRAALRTVLFFALRTTKRRPRR-NH2) |  |  |  |  | 20.8 µM |  | 1.6 µM | 79.1 µM |  |  |
| CC[C@H](C)[C@H](NC(=O)[C@H](CCCNC(=N)N)NC(=O)[C@H](CCCNC(=N)N)NC(=O)[C@@H](NC(=O)[C@H](C)NC(=O)[C@H](CCC(=O)O)NC(=O)[C@H](CCCCN)NC(=O)[C@H](CCCNC(=N)N)NC(=O)[C@H](CO)NC(=O)[C@H](CCCNC(=N)N)NC(=O)[C@H](CC(C)C)NC(=O)[C@@H](NC(=O)[C@H](CC(N)=O)NC(=O)[C@H](CCCNC(=N)N)NC(=O)[C@@H](NC(=O)[C@H](CCCCN)NC(=O)[C@H](CCSC)NC(=O)[C@@H](N)CCSC)[C@@H](C)CC)[C@@H](C)O)C(C)C)C(=O)N[C@@H](Cc1ccccc1)C(=O)N[C@@H](CO)C(=O)N[C@@H](CC(C)C)C(=O)N[C@@H](CCCNC(=N)N)C(=O)N[C@@H](CCCNC(=N)N)C(=O)N[C@@H](CCCNC(=N)N)C(=O)N[C@@H](CO)C(=O)N[C@H](C(=O)N[C@@H](Cc1ccccc1)C(=O)N[C@H](C(=O)N[C@@H](CCC(=O)O)C(=O)N[C@@H](CCSC)C(=O)N[C@@H](C)C(=O)N[C@@H](CCCNC(=N)N)C(=O)N[C@@H](C)C(=O)N[C@@H](Cc1ccccc1)C(=O)N[C@@H](CCCNC(=N)N)C(=O)N[C@@H](CCCNC(=N)N)C(=O)N[C@@H](Cc1ccccc1)C(=O)N[C@@H](CCCCN)C(=O)N[C@@H](C)C(=O)N[C@@H](CCCNC(=N)N)C(N)=O)[C@@H](C)O)C(C)C [AMP #28] (H-MMKIRNTLRSRKEAVRRIFSLRRRSVFTEMARAFRRFKAR-NH2) | 12.5 µM (≈ 62.9 µg/mL) | 3.1 µM (≈ 15.6 µg/mL) | 145 µM | 25.0 µM (≈ 126 µg/mL) | 25.0 µM | 1.6 µM (≈ 8.05 µg/mL) | 0.4 µM |  |  |  |
| H-MCFCFKAGPKICRGLQRKKKKFKYQTSFTKTGFGFLTKPKSPAR-NH2 (cysteines drawn unpaired) [AMP #10] |  |  |  |  | 50.0 µM |  | 0.6 µM |  | 105 µM |  |
| H-MCFCRYRFFYRRRIRFFKWGPYFYVWFGFPFGRKAFFLSVFRRRFC-NH2 (cysteines drawn unpaired) [AMP #19] |  |  |  |  | 25.0 µM |  | 8.4 µM |  | > 250 µM |  |
| H-MCFFPRRKSKVKVKGGLCRLLFIFFKTTFCFKAKTKKEIKKGTGKKIVR-NH2 (cysteines drawn unpaired) [AMP #18] |  |  |  |  | 50.0 µM |  | 3.1 µM |  | 153 µM |  |
| H-MWFDRKKFFWPGVCLFLLFFPKRFYKKGPEKVFSFRKKYKFARKCKCKL-NH2 (cysteines drawn unpaired) [AMP #12] | 25.0 µM | 12.5 µM |  | 25.0 µM |  |  |  |  |  |  |
| MAIRIIGRLARVRARVVARVRSRLLADDPPEDLLRVARRRKGRRWLFLS-NH2 [AMP #24] |  | 6.3 µM | 91.7 µM |  | 25.0 µM |  | 1.6 µM |  |  |  |
| MEAFKKKPRLPLFKVKLTRFLERARGLGSYRIFEFFKKFGVKKFVSSLR-NH2 [AMP #15] | 1.6 µM | 1.6 µM | 30.7 µM | 12.5 µM | 25.0 µM | 1.6 µM | 0.8 µM |  |  | 25.0 µM |
| MGWWFPPKTGNGAGKAFKKAAAAKWGGLFLKAAWFANKGEWGGGFPKGY-NH2 [AMP #9] | 25.0 µM | 6.3 µM | 146 µM |  | 25.0 µM |  | 3.1 µM |  |  |  |
| MKAKKWFESLFKTFFKKGKGIYPKSSFEKEKKTDKKKKFGGWVWFKK-NH2 [AMP #16] | 2.4 µM | 1.6 µM | 39.3 µM | 12.5 µM | 6.3 µM | 1.6 µM | 0.8 µM |  |  |  |
| MKKKKKGILKQNNKKKKYTLFNRMVVFLFLGFIMIIFVQKYKKVIYHK-NH2 [AMP #29] |  |  | > 250 µM |  | 12.5 µM |  | 6.3 µM |  |  |  |
| MKLRRRLRTRMVALLVLGVLFLLMLFFIIFLRRMLMRRFRA-NH2 [AMP #26] |  |  |  |  | 100.0 µM |  | 37.5 µM | > 250 µM |  |  |
| MLFGSRAKKYGKEAKQEKSFQYPKSSFVACKKKWKRSKHFFKTFKKKVS-NH2 [AMP #1] |  |  | 113 µM |  | > 100 µM |  | 0.8 µM |  |  |  |
| MNNRGPLGRRFKARRKWKKFVAGKMKKKRKRFKGFKKKGGFTPFVKKFV-NH2 [AMP #3] |  | 1.6 µM | 68 µM |  | 12.5 µM | 6.3 µM | 0.8 µM |  |  |  |
| MNTTSNMIHRAVQQKRISFRAAKLTVLFLFKRRLLRRLLRHHEN-NH2 [AMP #27] | 6.3 µM | 1.6 µM | 75.7 µM | 12.5 µM | 12.5 µM | 2.4 µM | 0.4 µM |  |  |  |
| MRNFFKKTRLKYKGKKELIKKSRAFGLKTKKRSGFFFPRALKYEEEFY-NH2 [AMP #7] |  |  | 133 µM |  | > 100 µM |  | 1.6 µM |  |  |  |
| MWIKWKKPRKWGRRLKKKEKEELGDYIYLYCKVYRLFGFLPYFISKKTA-NH2 [AMP #17] |  | 6.3 µM | 134 µM |  | 12.5 µM | 6.3 µM | 6.3 µM |  |  |  |
| MYLKKFLALKNSLKKLSPFKCAVKSWLKKCAEVTFYSKLLGRRGKKDGN-NH2 (cysteines drawn unpaired) [AMP #6] | 12.5 µM | 6.3 µM | 67.5 µM | 25.0 µM | 25.0 µM | 6.3 µM | 2.1 µM |  |  |  |
